# Laboratory results as given in publication PMC7232676, “Fragment-Based Design of Mycobacterium tuberculosis InhA Inhibitors” (Journal of Medicinal Chemistry, 2020).
# Where two headings read alike, the source gives them in different places.
# Columns and labels:
# [1] = molecular target: InhA (Mycobacterium tuberculosis, UniProt P9WGR1); assay: InhA enzymatic assay (NADH oxidation at 340 nm, 2-trans-octanoyl-CoA substrate); format: biochemical
# Experimental: The identified fragment hits were further evaluated by an InhA enzymatic assay using 2-trans-octanoyl-CoA as a substrate.[22]
# The carboxylic acid in fragment 1 (P1) was replaced by an isosteric sulfonamide as a linker to synthesize compound 6 (Figure 2b). Docking experiments with Glide XP[23] […] All the synthesized compounds were tested at a concentration of 100 μM using the InhA enzymatic assay.
# InhA activity was followed by a colorimetric assay that measured the oxidation of NADH at 340 nm in the presence of 2-trans-octanoyl-CoA as described before in a buffer that contained 30 mM PIPES, pH 7.5, 50 mM NaCl, 0.1 mM EDTA, and 100 nM InhA.[26] This was preincubated for 10 min at room temperature with 0.25 mM NADH and varying concentrations of the compounds with 1% (v/v) DMSO in a 150 μL reaction volume. The reaction was started by the addition of 2-trans-octanoyl-CoA at a final concentration of 1.5 mM, prepared as described previously.[22] Reactions were followed for 20 min using a plate reader (CLARIOstar, BMG LABTECH).
# [2] = tested on: trehalose monomycolates and dimycolates in M. tuberculosis H37Ra; assay: Metabolic labeling with 14C acetate, TLC of lipid profiles (TMM, TDM); format: cell-based, Mycobacterium tuberculosis; settings: 200 μM compound, 14C acetate labeling
# Description: (§1) Figure 5 (A) TLC of the metabolic labeling experiments of M. tuberculosis H37Ra with ^14C acetate treated with the compounds 14, 19, and 23–26 for the analysis of mycolic acid inhibition. Fatty acid methyl esters, FAME; mycolic acid methyl esters, MAME; isoniazid, INH. (B) TLC of the metabolic labeling experiments of M. tuberculosis H37Ra with ^14C acetate treated with the compounds 14, 19, and 23–26 for the analysis of the lipid inhibition. Trehalose monomycolates, TMM; trehalose dimycolates, TDM; phosphatidylethanolamine, PE; cardiolipin, CL; isoniazid, INH.
# The culture of M. tuberculosis H37Ra was grown statically at 37 °C in Middlebrook 7H9 broth (Difco) supplemented with albumin–dextrose–catalase and 0.05% Tween 80. When the culture reached the OD600nm value of 0.290, it was divided into 10 mL aliquots and tested compounds dissolved in DMSO were added at 200 μM final concentrations, while isoniazid that served as a control inhibitor was at 40 μM. The final concentration of DMSO in each culture was at 1%. […]
# Lipids were extracted from whole cells as described earlier with minor modifications.[24] […] Five μL of each lipid sample was loaded on the thin-layer chromatography (TLC) silica gel plates (F254, Merck); lipids were separated in chloroform/methanol/water [20:4:0.5] and detected by autoradiography.
# [3] = tested on: synthesis of mycolic acids in M. tuberculosis H37Ra; assay: Metabolic labeling with 14C acetate, TLC of FAME/MAME (mycolic acid synthesis); format: cell-based, Mycobacterium tuberculosis; settings: 200 μM compound, 14C acetate labeling
# Experimental: (§2) Further analysis of the effect on the synthesis of mycolic acids by metabolic labeling[24],[25] of the model strain M. tuberculosis H37Ra with ^14C acetate was also explored. A 48 h cultivation in the presence of 200 μM of the compounds in the media led to 84% growth inhibition for compound 19; 40% and 33% growth inhibition for compounds 14 and 23, respectively; 38% growth inhibition for compound 24 and isoniazid; 23% growth inhibition for compounds 25 and 26.
# as §1
# The culture of M. tuberculosis H37Ra was grown statically at 37 °C in Middlebrook 7H9 broth (Difco) supplemented with albumin–dextrose–catalase and 0.05% Tween 80. […]
# Fatty acid methyl esters (FAMEs) and mycolic acids methyl esters (MAMEs) were prepared from whole cells harvested from 4 mL culture aliquots as previously described.[32] […] 3× and detected by autoradiography.
# [4] = tested on: M. tuberculosis H37Ra; assay: Growth inhibition of M. tuberculosis H37Ra, 48 h cultivation; format: cell-based, Mycobacterium tuberculosis; settings: Mycobacterium tuberculosis, H37RA; 200 μM compound in the media, 48 h cultivation
# Experimental: as §2
# The culture of M. tuberculosis H37Ra was grown statically at 37 °C in Middlebrook 7H9 broth (Difco) supplemented with albumin–dextrose–catalase and 0.05% Tween 80. When the culture reached the OD600nm value of 0.290, it was divided into 10 mL aliquots and tested compounds dissolved in DMSO were added at 200 μM final concentrations, while isoniazid that served as a control inhibitor was at 40 μM. The final concentration of DMSO in each culture was at 1%. After 24 h of cultivation with shaking (120 rpm) in the presence of tested inhibitors, ^14C acetate (specific activity of 106 mCi/mmol) was added at a final concentration of 0.5 μCi/mL and the cells were cultivated for the next 24 h.
# Sequence of InhA (P9WGR1 whole entry, looked up, the tested form may be a part): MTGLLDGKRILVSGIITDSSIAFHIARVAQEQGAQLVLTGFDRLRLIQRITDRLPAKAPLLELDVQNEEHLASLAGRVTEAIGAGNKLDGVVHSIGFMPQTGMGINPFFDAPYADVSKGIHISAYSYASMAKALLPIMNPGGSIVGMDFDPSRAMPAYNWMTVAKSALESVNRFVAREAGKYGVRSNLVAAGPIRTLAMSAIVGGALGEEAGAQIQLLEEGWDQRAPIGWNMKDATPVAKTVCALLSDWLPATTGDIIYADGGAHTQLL
smiles,measurement,setting,value
"NCc1cccc(NS(=O)(=O)/C=C/c2cccc(C(F)(F)F)c2)c1 [compound 19, (E)-N-(3-(Aminomethyl)phenyl)-2-(3-(trifluoromethyl)phenyl)ethene-1-sulfonamide]",inhibition at 100 µM,"[1]; 100 μM compound, read-out: Inh % (inhibition percentage of InhA)",> 90%
same,LE (ligand efficiency),[1]; LE = (1.37 × pIC50)/HA,0.31
same,IC50,[1]; average of three experiments,4 µM
same,inhibition at 100 µM,"[1]; supplementary CSV, read-out: % inhibition",> 90%
same,amount of trehalose dimycolates (TDM),[2],decrease
same,amount of trehalose monomycolates (TMM),[2],accumulation
same,effect on synthesis of mycolic acids,[3],slight inhibition
same,inhibition at 200 µM,[4],84%
